Measurements taken from patent US20030013041A1, “Optical data carrier comprising a cationic aminoheterocyclic dye as light-absorbent compound in the information layer” (priority 2001, published 2003).

Assays:
Type in all cases: physicochemical
[1] = Absorption spectrum measured in solution; conditions: for λmax (methanol): in methanol; for λmax (methylene chloride): in methylene chloride; for λ1/2-λ1/10 (long wavelength flank): on the long wavelength flank; for λ1/2-λ1/10 (short wavelength flank): on the short wavelength flank
Excerpt: In the case of a write-once optical data carrier according to the invention which is written on and read by means of the light of a blue laser, preference is also given to cationic aminoheterocyclic dyes whose absorption maximum λmax2 is in the range from 420 to 550 nm, where the wavelength λ½ at which the absorbance in the short wavelength flank of the absorption maximum at the wavelength λmax2 is half of the absorbance value at λmax2 and the wavelength λ 1/10 at which the absorbance in the short wavelength flank of the absorption maximum at the wavelength λmax2 is one tenth of the absorbance value at λmax2 are preferably not more than 50 nm apart. Such a cationic aminoheterocyclic dye preferably has no shorter-wavelength maximum λmax1 down to a wavelength of 350 nm, particularly preferably down to 320 nm, very particularly preferably down to 290 nm.
In the case of a write-once optical data carrier according to the invention which is written on and read by means of the light of a red laser, preference is given to cationic aminoheterocyclic dyes whose absorption maximum λmax2 is in the range from 500 to 650 nm, where the wavelength λ½ at which the absorbance in the long wavelength flank of the absorption maximum at the wavelength λmax2 is half of the absorbance value at λmax2 and the wavelength λ 1/10 at which the absorbance in the long wavelength flank of the absorption maximum at the wavelength λmax2 is one tenth of the absorbance value at λmax2 are preferably not more than 50 nm apart. Such a cationic aminoheterocyclic dye preferably has no longer-wavelength maximum λmax3 up to a wavelength of 750 nm, particularly preferably up to 800 nm, very particularly preferably up to 850 nm.
The absorption spectra are measured, for example, in solution.
Suitable cationic aminoheterocyclic dyes having the required spectral properties are, in particular, those in which the dipole moment change Δμ=|μg−μag|, i.e. the positive difference between the dipole moments in the ground state and in the first excited state, is very small, preferably <5 D, particularly preferably <2 D. A method of determining such a dipole moment change Ap is described, for example, in F. Wuirthner et al., Angew. Chem. 1997, 109, 2933, and in the literature cited therein. A low solvent-induced wavelength shift (methanol/methylene chloride) is likewise a suitable selection criterion. Preference is given to cationic aminoheterocyclic dyes whose solvent-induced wavelength shift Δλ=|λmethylene chloride−λmethanol|, i.e. the positive difference between the absorption wavelengths in the solvents methylene chloride and methanol, is <25 nm, particularly preferably <15 nm, very particularly preferably <5 nm.

[2] = Solubility in TFP
[3] = Film formation
Excerpt: Apart from the abovementioned optical properties, the writeable information layer comprising light-absorbent organic substances has to have a substantially amorphous morphology to keep the noise signal during writing or reading as small as possible. For this reason, it is particularly preferred that crystallization of the light-absorbent substances be prevented in the application of the substances by spin coating from a solution, by vapour deposition and/or sublimation during subsequent covering with metallic or dielectric layers under reduced pressure.

Row | λmax (methanol) [1] [nm] | λmax (methylene chloride) [1] [nm] | λ1/2-λ1/10 (long wavelength flank) [1] [nm] | λ1/2-λ1/10 (short wavelength flank) [1] [nm] | ε ([1]; solvent not stated, printed after λmax in methanol and methylene chloride) | Solubility [2] [%] | Film appearance [3] | ε ([1]; at λmax in methanol) | ε ([1]; at λmax in methylene chloride) | SMILES
1 | – | 601 | 19 | 42 | – | > 2 | – | – | 104 970 l/mol cm | CN(C)c1ccc(/C=C2\SC(=[N+]3CCOCC3)N=C2c2ccccc2)cc1 [Example 4]
2 | – | 623 | – | – | – | – | – | – | 43650 L/mol/cm | CN(c1ccccc1)c1nc2c(s1)C=C1S/C(=[N+](\C)c3ccccc3)N=C1C2(C)C [Example 8]
3 | – | 616 | 27 | 50 | – | – | – | – | 37153 L/mol/cm | CC1(C)C2=NC(=[N+]3CCCC3)SC2=Cc2sc(N3CCCC3)nc21 [Example 7]

The remaining lines, values behind:

Row | SMILES | λmax (methanol) [1] [nm] | λmax (methylene chloride) [1] [nm] | λ1/2-λ1/10 (long wavelength flank) [1] [nm] | λ1/2-λ1/10 (short wavelength flank) [1] [nm] | ε ([1]; solvent not stated, printed after λmax in methanol and methylene chloride) | Solubility [2] [%] | Film appearance [3] | ε ([1]; at λmax in methanol) | ε ([1]; at λmax in methylene chloride)
4 | C(=C1/SC(=[N+]2CCOCC2)N=C1c1ccccc1)/c1sc(N2CCOCC2)nc1-c1ccccc1 [Example 1] | 581 | 587 | 14.5 | 42 | 102 800 l/mol cm | > 2 | – | – | –
5 | CCCCN(CCCC)c1ccc(/C=C/C2=[N+](C)c3ccccc3C2(C)C)s1 [Example 3] | 528 | 543 | 14 | 34 | – | > 2 | Glass-like film | 68 555 l/mol cm | 98 554 l/mol cm
6 | CN(C)c1ccc(/C=C/C2=[N+](C)c3ccccc3C2(C)C)o1 [Example 2] | 551 | – | 30 | 41 | – | > 2 | Glass-like film | 87 670 l/mol cm | –
